Assay results from ChEMBL document CHEMBL1201862, “PubChem BioAssay data set” (2004).
Activity calls are given as the source filed them.

Key:
[1] = target: T1, Mannose-6-phosphate isomerase (Homo sapiens, UniProt P34949); assay: PMI enzyme inhibitors, confirmation, biochemical, fluorescence intensity (AID 1535)
T1 sequence (P34949 whole entry): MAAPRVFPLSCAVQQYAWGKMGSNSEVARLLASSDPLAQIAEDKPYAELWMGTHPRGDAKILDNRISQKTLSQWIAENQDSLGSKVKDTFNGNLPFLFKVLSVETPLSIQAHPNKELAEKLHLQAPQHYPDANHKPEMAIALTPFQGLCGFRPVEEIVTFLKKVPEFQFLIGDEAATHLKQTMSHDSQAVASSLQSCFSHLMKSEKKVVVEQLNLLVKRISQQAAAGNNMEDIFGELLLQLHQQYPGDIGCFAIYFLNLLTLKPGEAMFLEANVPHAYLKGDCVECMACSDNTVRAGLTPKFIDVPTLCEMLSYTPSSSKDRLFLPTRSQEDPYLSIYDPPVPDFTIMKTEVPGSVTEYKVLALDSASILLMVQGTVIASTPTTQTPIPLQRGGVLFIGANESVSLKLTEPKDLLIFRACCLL

[2] = target: Phosphoethanolamine/phosphocholine phosphatase (Homo sapiens, UniProt Q8TCT1); assay: SAR assay for compounds that inhibit PHOSPHO1. [Related pubchem assays (depositor defined):AID1545, AID1565, AID1574]
[3] = target: Phosphomannomutase 2 (Homo sapiens, UniProt O15305); assay: Counter screen SAR assay for PMM2 inhibitors via a fluorescence intensity assay. [Related pubchem assays (depositor defined):AID1545, AID1574]
[4] = MDA-MB-231 cell growth inhibition, dose response, cytotoxicity control for RAD54 inhibitor project, CellTiter-Glo luminescence, cherry-pick (AID 651692); type: functional, cell-based
[5] = target: T2, Dual specificity protein phosphatase 3 (Homo sapiens, UniProt P51452); assay: VHR1 phosphatase inhibitors, biochemical (AID 1878)
[6] = cytotoxicity in HPDE-C7 cells, cell-based, fluorescence, HTS (AID 430); type: functional; details: Homo sapiens
[7] = target: T3, Dual specificity protein phosphatase 6 (Rattus norvegicus, UniProt Q64346); assay: MKP-3 phosphatase inhibitors, primary screen, biochemical, rat enzyme, in vitro (AID 425)
T3 sequence (Q64346 whole entry): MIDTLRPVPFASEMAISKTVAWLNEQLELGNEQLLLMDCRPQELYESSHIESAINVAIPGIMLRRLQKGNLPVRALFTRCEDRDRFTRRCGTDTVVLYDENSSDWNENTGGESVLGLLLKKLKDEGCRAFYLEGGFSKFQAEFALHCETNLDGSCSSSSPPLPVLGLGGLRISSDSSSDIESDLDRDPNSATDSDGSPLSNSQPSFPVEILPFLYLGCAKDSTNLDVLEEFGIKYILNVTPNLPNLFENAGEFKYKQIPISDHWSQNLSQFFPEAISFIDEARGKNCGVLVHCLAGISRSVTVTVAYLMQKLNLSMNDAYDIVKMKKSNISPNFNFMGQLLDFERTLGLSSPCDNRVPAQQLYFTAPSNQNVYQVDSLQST

[8] = target: Photoreceptor-specific nuclear receptor (Homo sapiens, UniProt Q9Y5X4); type: functional;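 further: potency for compounds that break the NR2E3 corepressor complex and count as activators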
[9] = target: T4, Replicative DNA helicase DnaB (Mycobacterium tuberculosis, UniProt P9WMR3); assay: DnaB intein splicing inhibitors, dose response, biochemical, cell-free fluorescence (AID 449749); type: functional
T4 sequence (P9WMR3 whole entry): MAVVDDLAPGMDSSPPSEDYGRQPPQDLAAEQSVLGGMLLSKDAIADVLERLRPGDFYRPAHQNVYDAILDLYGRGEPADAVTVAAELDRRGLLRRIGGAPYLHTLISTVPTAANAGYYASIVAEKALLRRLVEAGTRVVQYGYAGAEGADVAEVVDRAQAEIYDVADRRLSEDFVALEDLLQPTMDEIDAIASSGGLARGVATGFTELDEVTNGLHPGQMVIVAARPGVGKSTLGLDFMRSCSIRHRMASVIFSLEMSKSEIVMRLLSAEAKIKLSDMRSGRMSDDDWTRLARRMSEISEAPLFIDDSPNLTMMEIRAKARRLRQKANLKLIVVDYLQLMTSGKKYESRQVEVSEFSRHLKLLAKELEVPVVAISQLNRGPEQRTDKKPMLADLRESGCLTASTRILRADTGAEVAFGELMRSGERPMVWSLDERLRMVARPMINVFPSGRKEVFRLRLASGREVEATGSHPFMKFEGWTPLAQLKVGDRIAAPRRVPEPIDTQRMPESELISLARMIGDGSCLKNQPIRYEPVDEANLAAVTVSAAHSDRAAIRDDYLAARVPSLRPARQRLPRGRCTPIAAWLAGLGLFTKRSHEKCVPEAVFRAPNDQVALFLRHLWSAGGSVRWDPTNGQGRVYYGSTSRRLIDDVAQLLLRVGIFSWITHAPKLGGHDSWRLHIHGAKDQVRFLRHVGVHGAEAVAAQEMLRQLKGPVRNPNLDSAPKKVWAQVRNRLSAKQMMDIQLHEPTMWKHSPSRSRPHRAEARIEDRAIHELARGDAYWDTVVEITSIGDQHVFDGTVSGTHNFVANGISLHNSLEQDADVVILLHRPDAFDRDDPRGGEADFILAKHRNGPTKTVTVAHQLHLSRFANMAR

[10] = cytotoxicity in KRAS-transformed pancreatic duct cells, primary screen, cell-based, fluorescence, HTS (AID 431); type: functional; details: Homo sapiens;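 further: cell line used: HPDE-C7K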
[11] = target: T2, Dual specificity protein phosphatase 3; assay: VHR1 phosphatase inhibitors, primary screen, biochemical, absorbance, uHTS (AID 1654)
[12] = cytotoxicity in HEK-293T cells, dose response, cytotoxicity control for TCR NF-kB inhibitor project, luminescence, T-cell screen hits (AID 489026); type: functional, cell-based;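 further: cells exposed to compound about 14 hours before the viability readout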
[13] = tested on: INS1; assay: beta cell apoptosis inhibitors, cytokine rescue, dose response, luminescence, retest (AID 449756); type: functional, cell-based; details: Rattus norvegicus;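 further: cell death triggered by IL-1 beta plus TNF-alpha plus IFN-gamma mixture; protective hits raise ATP signal compared with cytokine alone wells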
[14] = Intein inhibitors as potential Tuberculosis drugs, a cytotoxicity screen. [Related pubchem assays (depositor defined):AID2221, AID2223, AID434968, AID435010, AID449749, AID449750, AID489010]; type: functional
[15] = cytotoxicity toward NIH3T3 fibroblasts, dose response, counter-screen, cell-based, ATP luminescence, mouse fibroblasts (AID 2010); type: functional;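 further: cells exposed to compound for about 90 hours before reading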
[16] = target: Ras and Rab interactor 1/Tyrosine-protein kinase ABL1 (Homo sapiens, UniProt P00519+Q13671); type: functional;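 further: biochemical TR-FRET dose-response test measuring inhibition of binding between Rin1 and Abl proteins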
[17] = target: Lysine-specific demethylase 4A (Homo sapiens, UniProt O75164); assay: JMJD2A histone demethylase inhibitors, dose response, selectivity assay for GASC-1 inhibitor project, biochemical, DELFIA europium, cherry-picked samples (AID 488840)
[18] = target: T5, Tyrosine-protein phosphatase non-receptor type 7 (Homo sapiens, UniProt P35236); type: functional
T5 sequence (P35236 whole entry): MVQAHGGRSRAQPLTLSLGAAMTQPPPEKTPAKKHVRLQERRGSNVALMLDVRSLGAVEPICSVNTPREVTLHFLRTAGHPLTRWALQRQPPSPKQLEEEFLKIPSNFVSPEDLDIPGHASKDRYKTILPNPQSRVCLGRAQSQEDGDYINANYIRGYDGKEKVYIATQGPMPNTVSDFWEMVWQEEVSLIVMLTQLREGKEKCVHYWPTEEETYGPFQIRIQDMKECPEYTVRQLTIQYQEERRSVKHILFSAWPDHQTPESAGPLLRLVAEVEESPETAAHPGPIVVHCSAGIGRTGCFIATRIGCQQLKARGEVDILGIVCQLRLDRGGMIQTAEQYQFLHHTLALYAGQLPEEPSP

[19] = target: Lysine-specific demethylase 4C (Homo sapiens, UniProt Q9H3R0); assay: GASC-1 (JMJD2C) histone demethylase inhibitors, dose response, biochemical, DELFIA europium, cherry-picked samples (AID 488835); type: functional
[20] = inhibitors of PGC1a acetylation in cells, dose response, cell-based, cherry-picked samples (AID 720514); type: functional;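 further: potency may reflect raised or lowered acetylation signal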
[21] = target: DNA repair and recombination protein RAD54-like (Homo sapiens, UniProt Q92698); assay: inhibitors of human RAD54 branch migration, confirmation, biochemical, fluorescence, cherry-picked samples, dose series (AID 651657); type: functional
[22] = microbe, parasite or virus in culture; type: functional; details: Mycobacterium tuberculosis
[23] = inhibitors of intracellular T. cruzi replication, confirmation, NIH3T3 host cells, beta-gal luminescence (AID 2044); type: functional, cell-based;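 further: intracellular parasites grown in NIH/3T3 mouse fibroblasts as host cells; luminescent beta-galactosidase reporter signal from transgenic T. cruzi replicating inside host cells; inhibitors lower the luminescence signal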
[24] = target: Peroxisome proliferator-activated receptor gamma/Nuclear receptor corepressor 2 (Homo sapiens, UniProt P37231+Q9Y618); type: functional

T2 sequence (P51452 whole entry): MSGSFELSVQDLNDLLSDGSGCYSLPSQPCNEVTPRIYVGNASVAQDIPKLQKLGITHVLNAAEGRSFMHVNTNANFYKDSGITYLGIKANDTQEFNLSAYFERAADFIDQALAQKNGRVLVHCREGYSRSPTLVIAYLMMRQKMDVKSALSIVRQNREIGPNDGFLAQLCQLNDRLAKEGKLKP
Sequence of Phosphomannomutase 2 (O15305 whole entry): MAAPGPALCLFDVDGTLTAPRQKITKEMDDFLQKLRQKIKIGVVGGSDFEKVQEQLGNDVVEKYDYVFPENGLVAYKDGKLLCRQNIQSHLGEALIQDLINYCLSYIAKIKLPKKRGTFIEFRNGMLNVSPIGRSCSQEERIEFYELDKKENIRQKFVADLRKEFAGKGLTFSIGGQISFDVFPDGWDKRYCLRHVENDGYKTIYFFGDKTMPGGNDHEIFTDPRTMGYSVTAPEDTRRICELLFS
Sequence of Phosphoethanolamine/phosphocholine phosphatase (Q8TCT1 whole entry): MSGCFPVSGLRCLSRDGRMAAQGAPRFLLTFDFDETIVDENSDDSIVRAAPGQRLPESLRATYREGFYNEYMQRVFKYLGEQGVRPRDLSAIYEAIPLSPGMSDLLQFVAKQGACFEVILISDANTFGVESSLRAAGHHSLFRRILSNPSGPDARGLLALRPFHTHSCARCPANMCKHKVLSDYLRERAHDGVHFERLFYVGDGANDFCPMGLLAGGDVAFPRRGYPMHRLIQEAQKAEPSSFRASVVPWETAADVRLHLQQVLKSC
Sequence of Ras and Rab interactor 1/Tyrosine-protein kinase ABL1 (P00519 whole entry): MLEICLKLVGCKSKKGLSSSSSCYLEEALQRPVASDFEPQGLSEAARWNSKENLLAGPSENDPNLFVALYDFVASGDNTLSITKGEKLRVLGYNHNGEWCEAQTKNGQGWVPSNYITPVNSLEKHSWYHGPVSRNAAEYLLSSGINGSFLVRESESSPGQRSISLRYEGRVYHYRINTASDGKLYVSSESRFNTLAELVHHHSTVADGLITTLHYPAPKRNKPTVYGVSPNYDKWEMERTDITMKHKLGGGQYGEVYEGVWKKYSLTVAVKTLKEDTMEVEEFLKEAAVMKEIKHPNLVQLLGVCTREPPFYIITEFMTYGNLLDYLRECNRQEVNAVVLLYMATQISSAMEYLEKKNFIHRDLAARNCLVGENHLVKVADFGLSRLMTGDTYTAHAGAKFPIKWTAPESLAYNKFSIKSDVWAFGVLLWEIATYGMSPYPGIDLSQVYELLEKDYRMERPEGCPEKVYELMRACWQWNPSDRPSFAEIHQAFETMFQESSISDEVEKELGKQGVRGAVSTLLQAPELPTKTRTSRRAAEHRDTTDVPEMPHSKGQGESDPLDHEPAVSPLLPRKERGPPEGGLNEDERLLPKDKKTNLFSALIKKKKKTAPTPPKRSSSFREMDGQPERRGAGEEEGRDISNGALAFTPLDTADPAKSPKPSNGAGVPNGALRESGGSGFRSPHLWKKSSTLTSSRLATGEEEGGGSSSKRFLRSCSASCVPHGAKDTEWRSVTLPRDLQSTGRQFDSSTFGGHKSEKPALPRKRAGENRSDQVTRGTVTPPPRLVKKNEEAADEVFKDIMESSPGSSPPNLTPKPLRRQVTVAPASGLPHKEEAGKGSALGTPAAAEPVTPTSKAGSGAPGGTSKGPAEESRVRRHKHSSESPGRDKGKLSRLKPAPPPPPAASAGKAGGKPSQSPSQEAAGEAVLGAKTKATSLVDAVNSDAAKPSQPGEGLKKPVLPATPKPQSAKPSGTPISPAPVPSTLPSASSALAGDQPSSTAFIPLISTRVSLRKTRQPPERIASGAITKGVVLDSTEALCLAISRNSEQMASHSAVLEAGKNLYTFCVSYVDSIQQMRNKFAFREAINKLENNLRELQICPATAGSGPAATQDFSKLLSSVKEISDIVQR
Sequence of Ras and Rab interactor 1/Tyrosine-protein kinase ABL1 (Q13671 whole entry): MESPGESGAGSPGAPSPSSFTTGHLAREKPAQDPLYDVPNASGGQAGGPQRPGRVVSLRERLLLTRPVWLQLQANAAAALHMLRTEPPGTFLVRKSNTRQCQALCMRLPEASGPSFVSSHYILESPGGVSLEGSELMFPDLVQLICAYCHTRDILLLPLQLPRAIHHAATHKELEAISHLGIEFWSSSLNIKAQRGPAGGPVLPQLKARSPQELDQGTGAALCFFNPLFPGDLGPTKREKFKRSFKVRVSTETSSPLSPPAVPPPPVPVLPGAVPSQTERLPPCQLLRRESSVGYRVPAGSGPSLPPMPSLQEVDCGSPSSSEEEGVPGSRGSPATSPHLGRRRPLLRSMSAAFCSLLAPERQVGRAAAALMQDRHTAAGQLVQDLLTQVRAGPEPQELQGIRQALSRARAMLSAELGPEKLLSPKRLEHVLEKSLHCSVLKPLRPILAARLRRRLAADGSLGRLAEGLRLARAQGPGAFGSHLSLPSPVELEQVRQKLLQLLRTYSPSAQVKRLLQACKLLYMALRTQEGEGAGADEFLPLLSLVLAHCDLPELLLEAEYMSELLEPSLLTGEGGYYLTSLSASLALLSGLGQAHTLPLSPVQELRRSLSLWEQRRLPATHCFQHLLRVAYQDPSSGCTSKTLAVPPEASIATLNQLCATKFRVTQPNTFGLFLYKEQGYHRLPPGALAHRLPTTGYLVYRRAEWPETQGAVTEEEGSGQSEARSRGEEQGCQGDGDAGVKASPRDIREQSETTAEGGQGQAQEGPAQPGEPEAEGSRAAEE
Sequence of Lysine-specific demethylase 4A (O75164 whole entry): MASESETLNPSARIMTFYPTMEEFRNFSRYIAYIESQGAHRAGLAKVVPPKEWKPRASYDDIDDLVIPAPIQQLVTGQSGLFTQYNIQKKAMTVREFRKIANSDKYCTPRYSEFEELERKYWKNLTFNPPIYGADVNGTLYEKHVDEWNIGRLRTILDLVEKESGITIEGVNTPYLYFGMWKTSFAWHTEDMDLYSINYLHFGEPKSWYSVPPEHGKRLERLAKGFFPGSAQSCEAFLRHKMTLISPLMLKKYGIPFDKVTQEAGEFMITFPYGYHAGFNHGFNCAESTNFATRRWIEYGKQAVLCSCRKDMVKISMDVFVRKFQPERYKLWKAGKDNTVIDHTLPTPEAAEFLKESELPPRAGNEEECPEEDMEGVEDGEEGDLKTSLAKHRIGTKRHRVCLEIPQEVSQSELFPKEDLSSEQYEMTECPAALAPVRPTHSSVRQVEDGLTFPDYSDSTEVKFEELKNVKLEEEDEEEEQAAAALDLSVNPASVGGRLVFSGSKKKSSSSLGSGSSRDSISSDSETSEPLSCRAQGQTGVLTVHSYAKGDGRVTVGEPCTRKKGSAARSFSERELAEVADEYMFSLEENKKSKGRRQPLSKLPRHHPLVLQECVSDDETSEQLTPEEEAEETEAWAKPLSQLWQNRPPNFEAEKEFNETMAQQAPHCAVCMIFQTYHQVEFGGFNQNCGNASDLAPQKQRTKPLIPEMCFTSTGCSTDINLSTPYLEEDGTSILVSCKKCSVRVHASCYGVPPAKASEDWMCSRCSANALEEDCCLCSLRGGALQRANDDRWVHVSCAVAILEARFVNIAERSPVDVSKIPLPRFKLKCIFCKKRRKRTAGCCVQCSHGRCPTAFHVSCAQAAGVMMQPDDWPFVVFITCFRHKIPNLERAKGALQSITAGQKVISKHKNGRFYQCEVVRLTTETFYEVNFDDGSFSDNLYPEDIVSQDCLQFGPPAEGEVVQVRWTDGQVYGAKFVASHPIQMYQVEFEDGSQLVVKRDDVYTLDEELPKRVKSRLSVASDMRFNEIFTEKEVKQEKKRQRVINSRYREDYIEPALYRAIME
Sequence of Photoreceptor-specific nuclear receptor (Q9Y5X4 whole entry): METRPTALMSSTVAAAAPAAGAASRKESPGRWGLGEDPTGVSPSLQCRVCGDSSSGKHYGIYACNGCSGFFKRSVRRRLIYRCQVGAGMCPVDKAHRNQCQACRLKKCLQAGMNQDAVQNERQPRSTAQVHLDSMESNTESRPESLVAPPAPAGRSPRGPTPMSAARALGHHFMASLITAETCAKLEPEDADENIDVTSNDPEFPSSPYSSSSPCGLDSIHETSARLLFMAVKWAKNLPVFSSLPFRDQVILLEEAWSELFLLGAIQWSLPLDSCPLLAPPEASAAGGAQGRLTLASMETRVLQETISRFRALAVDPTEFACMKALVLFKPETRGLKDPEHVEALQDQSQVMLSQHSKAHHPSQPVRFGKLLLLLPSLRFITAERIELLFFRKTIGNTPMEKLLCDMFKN
Sequence of DNA repair and recombination protein RAD54-like (Q92698 whole entry): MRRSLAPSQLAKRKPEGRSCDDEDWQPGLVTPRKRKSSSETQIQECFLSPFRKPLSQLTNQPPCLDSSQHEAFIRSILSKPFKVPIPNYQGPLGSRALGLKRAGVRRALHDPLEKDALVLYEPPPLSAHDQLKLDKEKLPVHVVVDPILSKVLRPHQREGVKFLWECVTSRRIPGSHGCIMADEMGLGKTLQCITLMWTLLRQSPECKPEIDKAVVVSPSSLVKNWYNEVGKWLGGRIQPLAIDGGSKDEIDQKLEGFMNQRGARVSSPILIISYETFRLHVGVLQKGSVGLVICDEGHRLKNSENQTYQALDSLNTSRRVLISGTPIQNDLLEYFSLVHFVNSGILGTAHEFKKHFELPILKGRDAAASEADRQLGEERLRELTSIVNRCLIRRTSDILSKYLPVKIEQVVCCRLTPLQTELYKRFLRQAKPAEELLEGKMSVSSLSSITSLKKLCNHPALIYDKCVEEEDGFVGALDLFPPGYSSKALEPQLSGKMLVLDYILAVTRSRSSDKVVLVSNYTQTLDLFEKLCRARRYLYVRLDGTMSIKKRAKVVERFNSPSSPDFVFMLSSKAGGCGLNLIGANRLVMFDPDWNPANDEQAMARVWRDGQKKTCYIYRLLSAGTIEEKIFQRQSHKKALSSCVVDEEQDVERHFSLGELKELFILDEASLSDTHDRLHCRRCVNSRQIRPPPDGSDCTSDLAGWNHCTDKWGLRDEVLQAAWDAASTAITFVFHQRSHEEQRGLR

O=c1c2c(OCC(F)(F)F)cc([N+](=O)[O-])cc2sn1-c1ccc(F)cc1
inactive: IC50 [3] > 100 µM
active: IC50 [1] 26.1 µM | IC50 [2] 577 nM

Cn1ncnc2c(=O)n(C)c(=O)nc1-2
active: AC50 [4] 1.8 µM | IC50 [5] 1.36 µM | EC50 [6] 470 nM | IC50 [7] 2.32 µM | AC50 [9] 57 nM | EC50 [10] 640 nM | IC50 [12] 2 µM | AC50 [13] 627 nM | CC50 [14] 10.3 µM | EC50 [15] 850 nM | IC50 [16] 323 nM | AC50 [17] 2.54 µM | IC50 [18] < 1.24 µM | AC50 [19] 541 nM | AC50 [20] 463 nM | AC50 [21] 1.1 µM | CC50 [22] 7.98 µM | EC50 [23] 492 nM
inactive: IC50 [11] < 980 nM
> 39.8 µM (not active): IC50 [8] | IC50 [24]
